# Measured values taken from US20220133714A1, “EXTRACELLULAR MATRIX MODULATING AGENT” (KOWA COMPANY, LTD., priority 2019, published 2022).
# Tests used:
# human fibroblasts = conditions: cited from earlier work
# [1] = test system: corneal endothelial cells; conditions: cited from earlier work; for apoptosis and endothelial-mesenchymal transition (EMT) of corneal endothelial cells / cell adhesion, migration, proliferation and wound healing: in vitro and in vivo animal models
# [2] = test system: corneal endothelial cells of normal donors; assay: Real-time PCR expression of FECD-associated matrix genes in normal donor endothelial-Descemet membrane specimens; assay type: cell-based, human; conditions: normal EDM specimens, 24 h
# Protocol: FIG. 3 illustrates Relative expression of FECD-associated matrix genes in corneal endothelial cells of normal donors (n=6) without and with incubation in 10-100 μM K-115 for 24 h. Gene expression was analyzed by quantitative real-time PCR and normalized to GAPDH (*p<0.01).
# (§1) Endothelial-Descemet membrane (EDM)-complexes from normal donor corneas and from FECD patients during DMEK surgery were prepared. EDM scrolls were dissected into two halves and incubated for 24-72 hours in CorneaMax storage medium (Eurobio) with or without K-115 (Selleck Chemicals). Gene expression analysis was performed using specific real-time PCR arrays for FECD-associated candidate genes as well as RT2 Profiler PCR Arrays (Quiagen). Array results were again validated using gene-specific real-time PCR assays. Protein expression analysis was performed by Western blotting.
# [3] = test system: corneal endothelial cells of FECD patients; assay: Western blot protein expression in FECD specimens; assay type: cell-based, human; conditions: 30 μM, 72 hours of incubation
# Protocol: FIG. 5 illustrates Western Blot analysis of fibronectin in corneal endothelial cells of FECD patients (n=4); equal loading of samples was verified by β-actin.
# as §1
# Then, gene expression levels in FECD specimens were analyzed, which were incubated in 30 μM K-115 for 24 hours. […] In order to identify additional matrix genes that may be transcriptionally regulated by K-115, gene expression profiling using a Human Extracellular Matrix and Adhesion Molecule PCR array were performed. With this approach, downregulation of fibronectin and collagen types I and III and detected additional downregulation of vitronectin and collagen types V and XIV in corneal endothelial cells from FECD patients (data not shown) were confirmed.
# [4] = test system: corneal endothelial cells from FECD patients; assay: Human Extracellular Matrix and Adhesion Molecule PCR array gene expression profiling; assay type: cell-based; conditions: data not shown
# Protocol: (§2) Endothelial-Descemet membrane (EDM)-complexes from normal donor corneas and from FECD patients during DMEK surgery were prepared. EDM scrolls were dissected into two halves and incubated for 24-72 hours in CorneaMax storage medium (Eurobio) with or without K-115 (Selleck Chemicals). Gene expression analysis was performed using specific real-time PCR arrays for FECD-associated candidate genes as well as RT2 Profiler PCR Arrays (Quiagen). Array results were again validated using gene-specific real-time PCR assays. Protein expression analysis was performed by Western blotting. Then, gene expression levels in FECD specimens were analyzed, which were incubated in 30 μM K-115 for 24 hours. […] In order to identify additional matrix genes that may be transcriptionally regulated by K-115, gene expression profiling using a Human Extracellular Matrix and Adhesion Molecule PCR array were performed. With this approach, downregulation of fibronectin and collagen types I and III and detected additional downregulation of vitronectin and collagen types V and XIV in corneal endothelial cells from FECD patients (data not shown) were confirmed.
# [5] = test system: corneal endothelial cells of FECD patients; assay: Real-time PCR expression of FECD-associated matrix genes in FECD patient endothelial-Descemet membrane specimens; assay type: cell-based, human; conditions: 30 μM, 24 hours, vs untreated controls
# Protocol: as §2, with “FIG. 4 illustrates Relative expression of FECD-associated matrix genes in corneal endothelial cells of FECD patients (n=20) without and with incubation in 30 μM K-115 for 24 h. Gene expression was analyzed by quantitative real-time PCR and normalized to GAPDH (*p<0.01, **p<0.001). Endothelial-Descemet” for “Endothelial-Descemet”
smiles,measurement,setting,value
O=S(=O)(c1cccc2cnccc12)N1CCCNCC1 [Fasudil],"expression of α-SMA, MLCP, LIMK1, p-cofilin, collagen I, and collagen III protein",human fibroblasts,attenuated
Cc1cncc2cccc(S(=O)(=O)N3CCCNC[C@@H]3C)c12 [H-1152],apoptosis and endothelial-mesenchymal transition (EMT) of corneal endothelial cells,[1],suppressed
same,"cell adhesion, migration, proliferation and wound healing",[1],stimulated
C[C@@H](N)[C@H]1CC[C@H](C(=O)Nc2ccncc2)CC1 [Y-27632],apoptosis and endothelial-mesenchymal transition (EMT) of corneal endothelial cells,[1],suppressed
same,"cell adhesion, migration, proliferation and wound healing",[1],stimulated
O=C(NCc1ccccc1)c1csc(Nc2ccncn2)n1 [Thiazovivin],apoptosis and endothelial-mesenchymal transition (EMT) of corneal endothelial cells,[1],suppressed
same,"cell adhesion, migration, proliferation and wound healing",[1],stimulated
"C[C@H]1CNCCCN1S(=O)(=O)c1cccc2cncc(F)c12 [K-115, (S)-(−)-1-(4-fluoro-5-isoquinolinesulfonyl)-2-methyl-1,4-homopiperazine]",agrin gene expression,"[2]; 10-100 μM, normalized to GAPDH",significantly downregulated
same,collagen type I gene expression,"[2]; 10-100 μM, normalized to GAPDH",significantly downregulated
same,collagen type III gene expression,"[2]; 10-100 μM, normalized to GAPDH",significantly downregulated
same,fibronectin gene expression,"[2]; 10-100 μM, normalized to GAPDH",significantly downregulated
same,α-smooth muscle actin (α-SMA) gene expression,"[2]; 10-100 μM, normalized to GAPDH",significantly downregulated
same,β-actin gene expression,"[2]; 10-100 μM, normalized to GAPDH",significantly downregulated
same,most effective concentration for downregulation of matrix genes,[2]; tested 10-100 μM,30 µM
same,EMT markers,[1],downregulation
same,endothelial cell proliferation and wound healing,[1],stimulating
same,functional endothelial markers,[1],upregulation
same,collagen type III protein level,[3],significantly downregulated
same,fibronectin protein level,[3]; Western blot,significantly downregulated
same,collagen type I gene expression (PCR array),[4],downregulation
same,collagen type III gene expression (PCR array),[4],downregulation
same,collagen type V gene expression (PCR array),[4],downregulation
same,collagen type XIV gene expression (PCR array),[4],downregulation
same,fibronectin gene expression (PCR array),[4],downregulation
same,vitronectin gene expression (PCR array),[4],downregulation
same,TGFBI gene expression,[5],upregulated
same,agrin gene expression,[5],significant reduction
same,collagen type I gene expression,[5],significant reduction
same,collagen type III gene expression,[5],significant reduction
same,collagen type XVI gene expression,[5],upregulated
same,fibronectin gene expression,[5],significant reduction
same,integrin a4 (ITGA4) gene expression,[5],upregulated
same,α-SMA gene expression,[5],significant reduction
